Measured values published in patent US6391568B1, “Method for determining platelet reactivity in a whole blood sample” (Lionheart Technologies, Inc., priority 1998, dated 2002).

Tested on: platelets (surface glycoprotein IIb-IIIa)
Assay: Inhibition of fibrinogen*FITC binding to ADP-activated platelets in whole blood spiked with ReoPro (microtitration well capture)
Format: cell-based
Settings: whole blood (CTI 32 μg/ml) pretreated with ReoPro 3 μg/ml; ADP 0, 0.4, 0.8 μM; FIG. 3
Text: The concentration of ReoPro used is that known to inhibit the aggregation of platelets as determined with the use of aggregometry.

## ReoPro: antiplatelet drug that inhibits binding of fibrinogen to the activated conformer of surface glycoprotein IIb-IIIa
  binding of fibrinogen*FITC to platelets (ratio of fibrinogen*FITC signal to CD42*PerCP signal): inhibits
